Measured values as given in EP4640674A1, “CRYSTAL FORMS OF ETHOXIMOD, PREPARATION METHOD THEREFOR AND USE THEREOF” (Jiankuan (Suzhou) Biotechnology Co., Ltd, priority 2022, dated 2024).
Values joined by “and” are separate entries in the source; they are usually repeats but may differ in a detail not shown here. Identical values can stand only once.

Key:
Format in all cases: physicochemical
[1] = Dynamic solubility at 37 °C (HPLC; residual solid by XRPD); settings: for solubility at 1 h / solubility at 2 h / solubility at 4 h / solubility at 24 h: thermodynamic from solid
Protocol: Samples of the crystal form A and the crystal form B of ethoximod were taken and prepared into saturated solutions at 37 °C in Fasted State Simulated Intestinal Fluid (FaSSIF, pH = 8.0), Fed State Simulated Intestinal Fluid (FeSSIF, pH = 5.0), Simulated Gastric Fluid (SGF, pH = 1.0), a hydrochloric acid aqueous solution (pH = 1.0), an acetic acid-sodium acetate buffer system (pH = 4.0), a phosphate buffer system (pH = 6.8) and water. After 1 h/2 h/4 h/24 h, filtration was performed to obtain solutions, and actual concentrations of the samples in the solutions were measured through high-performance liquid chromatography (HPLC) (diluting the filtrates as needed). Crystal forms of the solids before and after the experiment were characterized through XRPD to check whether phase transition had occurred. Table 4 Comparison of solubility of crystal form A and crystal form B

[2] = Compressibility: tableting evaluation; settings: punch die with a diameter of 6 mm, hydrochloride
Protocol: The crystal form A and the crystal form B of ethoximod were taken for preparation tableting evaluation. In this experiment, samples were subjected to tableting under the same pressure by using a punch die with a diameter of 6 mm, radial crushing forces F, diameters D and thicknesses L of the tablets were measured after the elastic recovery of the tablets, and the tensile strength of the tablets was calculated according to the following formula: tensile strength Ts = 2F/ΠDL.

[3] = Solid-state stability on storage (crystal form by XRPD, purity); settings: for Crystal Form after storage / main purity after storage / maximum single impurity after storage: 30 days exposed
Protocol: Samples were taken before and after storage, and crystal forms were measured through XRPD. […] Table 3 Comparison of solid-state stability of crystal form A and crystal form B

[4] = Adhesion test in ziplock bag; settings: ziplock bag flipped at 5 rpm, 10 min in each direction; hydrochloride
Protocol: Each of the crystal form A and the crystal form B of ethoximod was taken and put into a ziplock bag with a fixed size. A seal was sealed, and the ziplock bag was flipped at a rotation speed of 5 rpm for 10 min. A direction was changed, and the ziplock bag continued to be flipped at a fixed rotation speed for 10 min. Raw materials were poured out from the bag, a mass of the remaining raw materials was weighed accurately, and an adhesion rate was calculated.

[5] = Equilibrium solubility in organic solvents at room temperature (HPLC; solid by XRPD); settings: equilibrium for 24 h; for solubility at 24 h: organic solvent or mixture, thermodynamic from solid
Protocol: The crystal form A and the crystal form B of ethoximod were prepared into solutions at room temperature with ethanol, acetone and ethyl acetate. After equilibrium for 24 h, filtration was performed to obtain saturated solutions, and contents of the samples in the saturated solutions were measured through high-performance liquid chromatography (HPLC) (diluting the filtrates as needed). Crystal forms of the solids before and after the experiment were characterized through XRPD to check whether phase transition had occurred.

[6] = Angle of repose test (flowability); settings: hydrochloride
Protocol: Powder properties of active pharmaceutical ingredients affect the flowability of the active pharmaceutical ingredients. The crystal form A and the crystal form B of ethoximod was subjected to angle of repose and Hausner ratio tests to compare the flowability of the crystal form A and the crystal form B of ethoximod. […] In this experiment, angles of repose of active pharmaceutical ingredients of the two crystal forms were measured through an injection method in combination with a residual cone method, and the flowability of the active pharmaceutical ingredients of the two crystal forms was analyzed. Specific operations are as follows: powders were injected into a center of a disc with a limited diameter, the injection was stopped until materials on an oblique side of a powder accumulation layer automatically flew out along an edge of the disc, a height (H) of a cone was measured, and the angle of repose was calculated according to the diameter (D = 2r) of the disc with tanQ = H/r.

[7] = Mechanical stability: grinding, XRPD before and after; settings: ground with an agate mortar for 5 min; hydrochloride
Protocol: 50 mg crystal form A of ethoximod and 50 mg crystal form B of ethoximod were weighed and ground clockwise with an agate mortar for 5 min, and the samples before and after the grinding were subjected to an XRPD test.

[8] = Microscopic morphology and particle size; settings: optical microscope, 40× objective lens; hydrochloride
Description: Samples of the crystal form A and the crystal form B of ethoximod were subjected to microscopic morphological researches. The morphology and particle sizes of the crystal form A and the crystal form B were observed under a 40× objective lens of an optical microscope. The crystal form A is irregular and plate-shaped with a raw material particle size of below 35 µm and a long/short diameter ratio of 1 to 2. The crystal form B aggregates and becomes spherical with a raw material particle size of below 20 µm.

crystal form of the solid ([1]; FaSSIF (pH = 8.0), 37 °C, 1 h, hydrochloride): A+free alkali | crystal form of the solid ([1]; FaSSIF (pH = 8.0), 37 °C, 2 h, hydrochloride): A+free alkali | crystal form of the solid ([1]; FaSSIF (pH = 8.0), 37 °C, 4 h, hydrochloride): A+free alkali | crystal form of the solid ([1]; FaSSIF (pH = 8.0), 37 °C, 24 h, hydrochloride): A+free alkali | solubility at 1 h ([1]; Fasted State Simulated Intestinal Fluid (FaSSIF), 37 °C, pH 8, fassif, FaSSIF (pH = 8.0), 1 h): 10 µg/mL | solubility at 2 h ([1]; Fasted State Simulated Intestinal Fluid (FaSSIF), 37 °C, pH 8, fassif, FaSSIF (pH = 8.0), 2 h): 9 µg/mL | solubility at 4 h ([1]; Fasted State Simulated Intestinal Fluid (FaSSIF), 37 °C, pH 8, fassif, FaSSIF (pH = 8.0), 4 h): 11 µg/mL | solubility at 24 h ([1]; Fasted State Simulated Intestinal Fluid (FaSSIF), 37 °C, pH 8, fassif, FaSSIF (pH = 8.0), 24 h): 26 µg/mL | solubility ([1]; FeSSIF (pH = 5.0), 37 °C, 4 h, hydrochloride): 2520 µg/mL | solubility at 1 h ([1]; Fed State Simulated Intestinal Fluid (FeSSIF), 37 °C, pH 5, fessif, FeSSIF (pH = 5.0), 1 h): 1540 µg/mL | solubility at 2 h ([1]; Fed State Simulated Intestinal Fluid (FeSSIF), 37 °C, pH 5, fessif, FeSSIF (pH = 5.0), 2 h): 2000 µg/mL | solubility at 24 h ([1]; Fed State Simulated Intestinal Fluid (FeSSIF), 37 °C, pH 5, fessif, FeSSIF (pH = 5.0), 24 h): 2670 µg/mL | solubility at 1 h ([1]; Simulated Gastric Fluid (SGF), 37 °C, pH 1, simulated gastric fluid, SGF (pH = 1.0), 1 h): 240 µg/mL | solubility at 2 h ([1]; Simulated Gastric Fluid (SGF), 37 °C, pH 1, simulated gastric fluid, SGF (pH = 1.0), 2 h): 260 µg/mL | solubility at 4 h ([1]; Simulated Gastric Fluid (SGF), 37 °C, pH 1, simulated gastric fluid, SGF (pH = 1.0), 4 h): 260 µg/mL | solubility at 24 h ([1]; Simulated Gastric Fluid (SGF), 37 °C, pH 1, simulated gastric fluid, SGF (pH = 1.0), 24 h): 270 µg/mL | solubility at 1 h ([1]; acetic acid-sodium acetate buffer, 37 °C, pH 4, aqueous buffer, acetic acid-sodium acetate buffer pH = 4.0, 37 °C, 1 h): 2490 µg/mL | solubility at 2 h ([1]; acetic acid-sodium acetate buffer, 37 °C, pH 4, aqueous buffer, acetic acid-sodium acetate buffer pH = 4.0, 37 °C, 2 h): 2480 µg/mL | solubility at 4 h ([1]; acetic acid-sodium acetate buffer, 37 °C, pH 4, aqueous buffer, acetic acid-sodium acetate buffer pH = 4.0, 37 °C, 4 h): 2740 µg/mL | solubility at 24 h ([1]; acetic acid-sodium acetate buffer, 37 °C, pH 4, aqueous buffer, acetic acid-sodium acetate buffer pH = 4.0, 37 °C, 24 h): 2590 µg/mL | solubility at 1 h ([1]; hydrochloric acid aqueous solution, 37 °C, pH 1, simulated gastric fluid, hydrochloric acid aqueous solution pH = 1.0, 37 °C, 1 h): 280 µg/mL | solubility at 2 h ([1]; hydrochloric acid aqueous solution, 37 °C, pH 1, simulated gastric fluid, hydrochloric acid aqueous solution pH = 1.0, 37 °C, 2 h): 280 µg/mL | solubility at 4 h ([1]; hydrochloric acid aqueous solution, 37 °C, pH 1, simulated gastric fluid, hydrochloric acid aqueous solution pH = 1.0, 37 °C, 4 h): 290 µg/mL | solubility at 24 h ([1]; hydrochloric acid aqueous solution, 37 °C, pH 1, simulated gastric fluid, hydrochloric acid aqueous solution pH = 1.0, 37 °C, 24 h): 380 µg/mL | crystal form of the solid ([1]; phosphate buffer pH = 6.8, 37 °C, 1 h): free alkali | solubility ([1]; phosphate buffer pH = 6.8, 37 °C, 1 h, hydrochloride): 0.2 µg/mL | crystal form of the solid ([1]; phosphate buffer pH = 6.8, 37 °C, 2 h): free alkali | crystal form of the solid ([1]; phosphate buffer pH = 6.8, 37 °C, 4 h): free alkali | crystal form of the solid ([1]; phosphate buffer pH = 6.8, 37 °C, 24 h): free alkali | solubility ([1]; phosphate buffer pH = 6.8, 37 °C, 24 h, hydrochloride): 0.76 µg/mL | solubility at 2 h ([1]; phosphate buffer, 37 °C, pH 6.8, aqueous buffer, phosphate buffer pH = 6.8, 37 °C, 2 h): 0.07 µg/mL | solubility at 4 h ([1]; phosphate buffer, 37 °C, pH 6.8, aqueous buffer, phosphate buffer pH = 6.8, 37 °C, 4 h): 0.14 µg/mL | solubility at 1 h ([1]; water, 37 °C, 1 h): 2080 µg/mL | solubility at 2 h ([1]; water, 37 °C, 2 h): 2150 µg/mL | solubility at 4 h ([1]; water, 37 °C, 4 h): 2140 µg/mL | solubility at 24 h ([1]; water, 37 °C, 24 h): 2260 µg/mL | Radial Crushing Force F (Hardness/N) ([2]; tablet): 5 N and 3 N | Experimental Phenomenon ([2]; tableting): slight sticking | change in main purity ([3]; 40 °C/75% RH, 60 °C and 92.5% RH for 30 days): no significant change | time the crystal form is stable (XRPD) ([3]; 60 °C, 92.5% RH, light and 45 °C/75% RH): at least 30 days | Crystal Form after storage ([3]; At 40 °C/75% RH, hydrochloride): crystal form A | main purity after storage ([3]; At 40 °C/75% RH, hydrochloride): 98.88 A% | maximum single impurity after storage ([3]; At 40 °C/75% RH, hydrochloride): 0.35 A% | Crystal Form after storage ([3]; At 60 °C, hydrochloride): crystal form A | main purity after storage ([3]; At 60 °C, hydrochloride): 98.82 A% | maximum single impurity after storage ([3]; At 60 °C, hydrochloride): maximum single impurity: 0.35 A% | Crystal Form after storage ([3]; At 92.5% RH, hydrochloride): crystal form A | main purity after storage ([3]; At 92.5% RH, hydrochloride): 98.86 A% | maximum single impurity after storage ([3]; At 92.5% RH, hydrochloride): maximum single impurity: 0.35 A% | Crystal Form after storage ([3]; In light, hydrochloride): crystal form A | main purity after storage ([3]; In light, hydrochloride): 97.79 A% | maximum single impurity after storage ([3]; In light, hydrochloride): maximum single impurity: 0.34 A% | main purity ([3]; before storage, hydrochloride): 98.84 A% | maximum single impurity ([3]; before storage, hydrochloride): 0.40 A% | change in main purity ([3]; light for 30 days, hydrochloride): slightly decreased | Adhesion Amount Per Unit Area [4]: 0.002 g/m^2 | Weight of API Adsorbed in Bag [4]: 0.1053 g | solubility at 24 h ([5]; acetone): 30 µg/mL | solubility at 24 h ([5]; ethanol): 3470 µg/mL | solubility ([5]; ethyl acetate, hydrochloride): 40 µg/mL | Average of Angles of Repose [6]: 57.2 ° | Angle of Repose ([6]; single determination): 56.3 ° and 58.0 ° | crystal form after grinding (XRPD) [7]: remains unchanged | raw material particle size [8]: below 35 µm
SMILES: CCc1nc(-c2ccc(-c3ccc(CCC(N)(CO)CO)cc3)cc2)co1.Cl [crystal form A, 2-amino-2-{2-(4'-(2-ethyloxazol-4-yl)-[1,1'-biphenyl]-4-yl)ethyl}-1,3-propylene glycol hydrochloride]
